Laboratory results reported in PubChem BioAssay (NCI).
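Step 1: Grow cells in 96-well plates. Step 2: Expose to compound for 48 hours at 5 concentrations. Step 3: Interpolate endpoints linearly; if unreached, use highest concentration. GI50 = concentration required for 50% inhibition of growth. The concentration for full growth arrest is given as TGI.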

Columns and labels:
Experiment in all cases: growth of human tumour cells (NCI), 48 h
[1] = tested on: UACC-257 melanoma
[2] = tested on: T-47D breast
[3] = tested on: SR leukemia
[4] = tested on: SK-MEL-28 melanoma
[5] = tested on: A549 NSCLC
[6] = tested on: HT29 colon
[7] = tested on: OVCAR-3 ovarian
[8] = tested on: NCI/ADR-RES ovarian
[9] = tested on: HCT-116 colon
[10] = tested on: SF-539 CNS

SMILES | GI50 [1] [µM] | TGI [1] [µM] | GI50 [2] [nM] | TGI [2] [µM] | GI50 [3] [nM] | TGI [3] [µM] | GI50 [4] [µM] | TGI [4] [µM] | GI50 [5] [nM] | TGI [5] [µM] | GI50 [6] [nM] | TGI [6] [µM] | GI50 [7] [nM] | TGI [7] [µM] | GI50 [8] [nM] | TGI [8] [µM] | GI50 [9] [nM] | TGI [9] [µM] | GI50 [10] [µM] | TGI [10] [µM]
O=C(Nc1cccc(C(F)(F)F)c1)c1cc2ccccc2cc1O | 2.97 | > 24.7 | 1680 | 58 | 533 | 12.3 | 3.05 | > 100 | 2700 | > 61.6 | 3330 | > 55.5 | 783 | 6.1 | 2170 | 9.34 | 1150 | 10.1 | 2.25 | 70.2
Cc1cc(Nc2nc(-c3ccncc3)nc3ccccc23)n[nH]1 | 48 | > 100 | 5000 | > 100 | 1720 | 47.7 | 88.8 | > 100 | 3590 | > 100 | 2880 | > 100 | 9260 | > 100 | 11100 | > 100 | 1990 | > 100 | 3.83 | > 100
C/C(=N/O)c1ccc(Nc2cc(-n3ccnc3)c3ccccc3n2)cc1 | 3.77 | 9.35 | 9960 | > 100 | 3780 | > 100 | 70.4 | > 100 | 7210 | 36.4 | 8340 | > 100 | 22500 | 91.3 | 42900 | > 100 | 14600 | 38.9 | 11.5 | > 100
O=C(/C=C/c1cccc2ccccc12)Nc1ncc(Cc2ccccc2)s1 | 4.97 | > 100 | 894 | > 100 | 866 | > 100 | 3.89 | > 100 | 1320 | > 66.3 | 1000 | > 47 | 738 | 3.22 | 713 | > 69.3 | 460 | 11.6 | 0.716 | 2.92
O=C(Nc1nc2ccccc2s1)c1cc(-c2ccc(F)cc2)n2nc(-c3ccccc3)cc2n1 | – | – | 3340 | > 100 | 3930 | 12.8 | – | – | – | – | – | – | – | – | – | – | 2710 | > 100 | – | –
COc1cc2c(cc1OCCCOc1ccc(-c3nc4ccc(N5CCN(C)CC5)cc4[nH]3)cc1)N=C[C@@H]1CCCN1C2=O | – | – | < 10 | 15 | < 10 | < 0.01 | < 0.01 | 54.5 | < 10 | < 0.0222 | < 10 | > 100 | < 10 | < 0.01 | < 17 | 0.161 | < 10 | > 37 | < 0.01 | < 0.01
COc1ccc(C2=Nc3c/c(=C\c4c(O)[nH]c5cc(Cl)ccc45)ccc3=N2)cc1 | 11 | 25.8 | 10700 | 29.8 | 1130 | 3.89 | 1.55 | 19.9 | 10100 | 25.4 | 3060 | 11.4 | 2430 | 8.24 | 5000 | 33.8 | 2380 | 8.8 | 11.4 | 28
Cc1ccc(-c2n[nH]c(=O)c3noc(-c4ccc(C)cc4)c23)cc1 | 5.87 | > 100 | 2410 | > 100 | 441 | > 100 | 10.2 | > 100 | 740 | > 100 | 400 | 15.8 | 1000 | 3.41 | 623 | > 100 | 557 | 75.5 | 0.787 | 4.14
C=CC(C)(O)CC/C=C(\CO)C(=O)OC1C(C)OC(O[C@](C)(C=C)CC/C=C(\CO)C(=O)O[C@H]2C[C@@]3(C(=O)OC4OC(CO)C(O)C(O)C4OC4OC(C)C(OC5OC(CO)C(O)C5O)C(OC5OC(CO)C(O)C(O)C5O)C4O)C(CC2(C)C)C2=CCC4[C@@]5(C)CC[C@H](OC6OC(COC7OC(C)C(O)C(O)C7OC7OCC(O)C(O)C7O)C(O)C(O)C6NC(C)=O)C(C)(C)C5CC[C@@]4(C)[C@]2(C)C[C@H]3O)C(O)C1O (some centres not stated) | 0.461 | 1.47 | 155 | 0.739 | 1590 | 15.1 | 0.0852 | 0.248 | 286 | 1.49 | 1420 | 6.06 | 94.7 | 0.344 | 2680 | 7.84 | 143 | 6.93 | 4.86 | 9.77
COc1ccc2c(c1)/C(=N/OC(C)=O)c1c-2cnc2ccccc12 | 61.1 | > 100 | 19900 | 66.3 | 13800 | 38 | 31.6 | 77.2 | 27400 | 73.8 | 43100 | > 100 | – | – | 36900 | > 100 | 21000 | 48.1 | 41.9 | > 100
CC(N1CCOCC1)C(O)(c1ccccc1)c1ccccn1 (configuration not stated) | – | > 100 | – | > 100 | – | > 100 | – | > 100 | – | > 100 | – | > 100 | – | > 100 | – | > 100 | – | > 100 | – | > 100
CCN(CC)Cc1cc(Nc2c3ccccc3nc3cc(Cl)ccc23)ccc1O | 1.9 | 3.41 | 1970 | 4 | 3080 | > 100 | 1.79 | 3.2 | 1360 | 4.26 | 487 | 1.75 | 1740 | 3.28 | – | – | 967 | 2.67 | 2.19 | 4.58
CCCOC(=O)C1C2CCC(O2)C1C(=O)O (configuration not stated) | – | > 100 | – | > 100 | – | > 100 | – | > 100 | – | > 100 | – | > 100 | – | > 100 | – | > 100 | – | > 100 | – | –
NNC(=O)C(O)C(O)C(=O)NN (configuration not stated) | – | > 100 | – | > 100 | – | > 100 | – | > 100 | – | > 100 | – | > 100 | – | > 100 | – | > 100 | – | > 100 | – | –
CNC(c1ccncc1)C(NC)c1ccncc1 (configuration not stated) | – | > 100 | – | > 100 | – | > 100 | – | > 100 | – | > 100 | – | > 100 | – | > 100 | – | > 100 | – | > 100 | – | –
